In patent US9238815B2 (priority 2009, dated 2016):

Key:
WSN-Ren virus [1] = type: cell-based, influenza A/WSN/33 virus
WSN-Ren virus [2] = type: cell-based, influenza A/WSN/33 virus; remark: listed apart in the source
[3] = test system: pseudotyped lentivirus particles bearing influenza virus HA (WSN); type: cell-based
influenza A/WSN/33 virus [4] = test: Small molecule inhibition of virus growth in A549 cells, plaque assay; type: cell-based
influenza virus = type: cell-based
influenza A/WSN/33 virus [5] = type: cell-based

In the case of `CCc1cc(-c2n[nH]c(C)c2-c2ccc3c(c2)OCCO3)c(O)cc1O` [CCT018159, 4-(4-(2,3-Dihydro-1,4-benzodioxin-6-yl)-5-methyl-1H-pyrazol-3-yl)-6-ethylresorcinol], the WSN-Ren virus growth (WSN-Ren virus [1]) is reported as “reduce influenza virus growth”.

For “HIST3H3 (guide TGAGAGGTTGCGCAACGTTCA; target site or template, no part of the molecule; target sequence, further chemistry not given here)”, the “Avg Score 12 h” value (WSN-Ren virus [2]) was 0.6254, the “Avg Score 24 h” value (WSN-Ren virus [2]) was 0.5921 and the “Avg Score 36 h” value (WSN-Ren virus [2]) was 0.4817.

In the case of `COc1cc([C@@H]2c3cc4c(cc3[C@H](O)[C@H]3COC(=O)[C@H]23)OCO4)cc(OC)c1OC` [Podophyllotoxin], the WSN-Ren virus growth (WSN-Ren virus [1]) is reported as “reduce influenza virus growth”.

In the case of `COc1cc2c(O)c3c(c(-c4ccc5c(c4)OCO5)c2cc1OC)C(=O)OC3` [Diphyllin], the influenza virus entry [3] is reported as “inhibits influenza virus entry”, the “inhibition of influenza A/WSN/33 virus” value (influenza A/WSN/33 virus [4]; A549 cells, MOI=1, FIG. 8b) is reported as “Dose-dependent inhibition” and the “influenza virus inhibitory activity in high-throughput screen” value (influenza virus) is reported as “having influenza virus inhibitory activity”.

In the case of `COc1ccc(S(=O)(=O)N(CCO)c2ccccc2CN(C)C/C=C/c2ccc(Cl)cc2)cc1` [KN-93], the “A/WSN/33 influenza viral replication (viral titers)” value (influenza A/WSN/33 virus [5]) is reported as “inhibits A/WSN/33 influenza viral replication in a dose-dependent manner”, the “influenza virus growth by plaque assay” value (influenza A/WSN/33 virus [4]; 20 μM) is reported as “impairs influenza virus growth” and the “cell viability (ATP levels)” value (MDCK cells) is reported as “without affecting cell viability”.

For `O=c1[nH]c2ccccc2c(O)c1-c1nc2ccccc2[nH]1` [FGF/VEGF Receptor Inhibitor, 4-Hydroxy-3-benzimidazol-2-ylhydroquinolin-2-one], the WSN-Ren virus growth (WSN-Ren virus [1]) was “reduce influenza virus growth”.
